Legend:
[1] = tested on: MT-4 cells; experiment: Cytotoxicity in mock-infected MT-4 cells, MTT assay; assay type: cell-based
Procedure: (§1) The anti-HIV-1 (strain IIIB) activity evaluation in MT-4 cells was conducted using an optimized MTT assay. The cell lines were obtained from the laboratory (Prof. Erik De Clercq, Rega Institute for Medical Research, KU Leuven, Herestraat 49, Leuven, Belgium). Compounds were serially diluted (5-fold increments, starting from 10× concentration) and dispensed into 96-well plates (25 µL/well) via an automated Biomek 3000 workstation (Beckman Instruments, Fullerton, CA, USA). Parallel experimental groups included virus-infected (50 µL HIV inoculum, 100–300 TCID50) and mock-infected controls (50 µL culture medium). MT-4 cells were centrifuged (220× g, 5 min), resuspended to 6 × 10⁵ cells/mL, and seeded (50 µL/well). After a 5-day incubation, cell viability was quantified by measuring mitochondrial dehydrogenase-mediated MTT-to-formazan conversion using dual-wavelength spectrophotometry (540 nm primary, 690 nm reference). The 50% cytotoxic concentration (CC50) was calculated from triplicate median absorbance values, representing the compound concentration reducing mock-infected cell viability by 50%.

[2] = tested on: HIV-1 (strain IIIB); experiment: Anti-HIV-1 (strain IIIB) activity in MT-4 cells, MTT assay; assay type: cell-based; details: protection of MT-4 cells against HIV-induced cytopathogenicity by 50%
Procedure: as §1

Row | SMILES | CC50 [1] [µM] | EC50 [2] [nM]
1 | O=C1Nc2ccc(Cl)cc2[C@@](C#CC2CC2)(C(F)(F)F)O1 [EFV, reference compound] | > 4.59 | 3
2 | Cc1ccnc2c1NC(=O)c1cccnc1N2C1CC1 [NVP, reference compound] | > 15 | 190

From paper PMC12073785, “Design, Synthesis and Biological Evaluation of 3-Hydrazonoindolin-2-one Derivatives as Novel HIV-1 RNase H Inhibitors” (Molecules, 2025)
